According to BindingDB's records for patent US12384776 (Foghorn Therapeutics, 2025):

Each molecule was assayed against T1, Bromodomain-containing protein 9 (Human, UniProt Q9H8M2) (assay: SYO1 BRD9 NanoLuc Degradation Assay). Conditions: read-out: IC50 (the source's name).
T1 sequence (Q9H8M2 whole entry): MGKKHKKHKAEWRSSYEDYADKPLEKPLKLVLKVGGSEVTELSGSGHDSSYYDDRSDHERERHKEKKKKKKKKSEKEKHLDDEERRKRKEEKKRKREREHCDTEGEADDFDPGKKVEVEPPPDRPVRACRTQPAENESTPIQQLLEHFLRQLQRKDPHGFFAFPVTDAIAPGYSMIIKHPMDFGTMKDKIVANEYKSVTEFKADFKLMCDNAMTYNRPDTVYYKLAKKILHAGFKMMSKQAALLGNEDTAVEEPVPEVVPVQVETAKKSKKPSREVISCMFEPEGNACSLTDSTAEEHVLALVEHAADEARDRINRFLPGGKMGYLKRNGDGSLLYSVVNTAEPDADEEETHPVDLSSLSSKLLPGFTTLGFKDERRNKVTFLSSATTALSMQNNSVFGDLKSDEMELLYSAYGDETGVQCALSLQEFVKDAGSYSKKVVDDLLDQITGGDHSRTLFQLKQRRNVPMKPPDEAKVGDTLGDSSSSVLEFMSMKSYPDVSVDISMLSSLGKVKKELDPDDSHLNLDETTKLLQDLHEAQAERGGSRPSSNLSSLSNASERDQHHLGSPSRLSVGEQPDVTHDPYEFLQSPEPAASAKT
Protocol: A stable SYO-1 cell line expressing 3×FLAG-NLuc-BRD9 was generated. On day 0 cells were seeded in 30 μL media into each well of 384-well cell culture plates. The seeding density was 8000 cells/well. On day 1, cells were treated with 30 nL DMSO or 30 nL of 3-fold serially DMSO-diluted compounds (10 points in duplicates with 1 μM as final top dose). Subsequently plates were incubated for 6 hours in a standard tissue culture incubator and equilibrated at room temperature for 15 minutes. Nanoluciferase activity was measured by adding 15 μL of freshly prepared Nano-Glo Luciferase Assay Reagent (Promega N1130), shaking the plates for 10 minutes and reading the bioluminescence using an EnVision reader.
For CNC(=O)N1CCc2c(-c3cc(OC)c(CN4CCN(C5CN(c6ccc7c(c6)C(=O)N(C6CCC(=O)NC6=O)C7=O)C5)CC4)c(OC)c3)cn(C)c(=O)c2C1 (stereo unspecified) [US12384776, Compound D164], the DC50 was < 10 nM.
CNC(=O)N1CCc2c(-c3cc(OC)c(CN4CCC5(CC4)CC(C#Cc4ccc6c(c4)C(=O)N(C4CCC(=O)NC4=O)C6=O)C5)c(OC)c3)cn(C)c(=O)c2C1 (stereo unspecified) [US12384776, Compound D134] was tested, and the DC50 was < 10 nM.
With CNC(=O)N1CCc2c(-c3cc(OC)c(CN4CC5(CCN(c6ccc7c(c6)C(=O)N(C6CCC(=O)NC6=O)C7=O)CC5)C4)c(OC)c3)cn(C)c(=O)c2C1 (stereo unspecified) [US12384776, Compound D161] the DC50 was < 10 nM.
With CNC(=O)N1CCc2c(-c3cc(OC)c(CN4CCC5(CCN(c6ccc7c(c6)C(=O)N(C6CCC(=O)NC6=O)C7=O)C5)C4)c(OC)c3)cn(C)c(=O)c2C1 (stereo unspecified) [US12384776, Compound D162] the DC50 was < 10 nM.
CNC(=O)N1CCc2c(-c3cc(OC)c(CN4CCN(CCC5CCN(c6ccc7c(c6)C(=O)N(C6CCC(=O)NC6=O)C7=O)CC5)C(C)(C)C4)c(OC)c3)cn(C)c(=O)c2C1 (stereo unspecified) [US12384776, Compound D101] was tested, and the DC50 was < 10 nM.
In the case of CNC(=O)N1CCc2c(-c3cc(OC)c(CN4CCC5CN(c6ccc7c(c6)C(=O)N(C6CCC(=O)NC6=O)C7=O)C5C4)c(OC)c3)cn(C)c(=O)c2C1 (stereo unspecified) [US12384776, Compound D166], the DC50 is reported as < 10 nM.
In the case of CNC(=O)N1CCc2c(-c3cc(OC)c(CN4CCC5(CC4)CN(c4ccc6c(c4)C(=O)N(C4CCC(=O)NC4=O)C6=O)C5)c(OC)c3)cn(C)c(=O)c2C1 (stereo unspecified) [US12384776, Compound D159], the DC50 is reported as < 10 nM.
For CNC(=O)N1C=Cc2c(-c3cc(OC)c(CN4CCC(CN5CCC6(CC5)CN(c5ccc7c(c5)C(=O)N(C5CCC(=O)NC5=O)C7)C6)C(F)(F)C4)c(OC)c3)cn(C)c(=O)c2C1 (stereo unspecified) [US12384776, Compound D335], the DC50 was < 10 nM.
COc1cc(-c2cn(C)c(=O)c3c2CCN(C(=O)NC2CCC24CCN(CCOc2ccc5c(c2)C(=O)N(C2CCC(=O)NC2=O)C5=O)CC4)C3)cc(OC)c1CN(C)C (stereo unspecified) [US12384776, Compound D239] was tested, and the DC50 was > 10 nM.
In the case of CNC(=O)N1CCc2c(-c3cc(OC)c(CN4CCN(CCC5CCN(c6ccc7c(c6)C(=O)N(C6CCC(=O)NC6=O)C7=O)CC5)CC4C(F)(F)F)c(OC)c3)cn(C)c(=O)c2C1 (stereo unspecified) [US12384776, Compound D97], the DC50 is reported as < 10 nM.
CNC(=O)N1CCc2c(-c3cc(OC)c(CN4CCC5C4CN5c4ccc5c(c4)C(=O)N(C4CCC(=O)NC4=O)C5=O)c(OC)c3)cn(C)c(=O)c2C1 (stereo unspecified) [US12384776, Compound D157] was tested, and the DC50 was < 10 nM.
For CNC(=O)N1CCc2c(-c3cc(OC)c(CN4CCC5(CC4)CCN(c4ccc6c(c4)C(=O)N(C4CCC(=O)NC4=O)C6=O)C5)c(OC)c3)cn(C)c(=O)c2C1 (stereo unspecified) [US12384776, Compound D163], the DC50 was < 10 nM.
For CNC(=O)N1CCc2c(-c3cc(OC)c(CN4CC5(CC(C#Cc6ccc7c(c6)C(=O)N(C6CCC(=O)NC6=O)C7=O)C5)C4)c(OC)c3)cn(C)c(=O)c2C1 (stereo unspecified) [US12384776, Compound D133], the DC50 was < 10 nM.
CNC(=O)N1CCc2c(-c3cc(OC)c(CN4CCC5(C4)CN(c4ccc6c(c4)C(=O)N(C4CCC(=O)NC4=O)C6=O)C5)c(OC)c3)cn(C)c(=O)c2C1 (stereo unspecified) [US12384776, Compound D165] was tested, and the DC50 was < 10 nM.
With COc1cc(-c2cn(C)c(=O)c3c2CCN(C(=O)NCCOCCOCCNc2cccc4c2C(=O)N(C2CCC(=O)NC2=O)C4=O)C3)cc(OC)c1CN(C)C (stereo unspecified) [US12384776, Compound D12] the DC50 was > 10 nM.
For CNC(=O)N1CCc2c(-c3cc(OC)c(CN4CCC5(CC(C#Cc6ccc7c(c6)C(=O)N(C6CCC(=O)NC6=O)C7=O)C5)C4)c(OC)c3)cn(C)c(=O)c2C1 (stereo unspecified) [US12384776, Compound D135], the DC50 was < 10 nM.
